The text below walks through data of US8524214B2, “Polyal drug conjugates comprising variable rate-releasing linkers” (Mersana Therapeutics, Inc., priority 2009, dated 2013).

One data set deals with HT-29 cells. As to the kind of experiment: Inhibitory effect on cell growth (MTT assay), HT-29 cells. It counts as cell-based. The method, then:
Using HT-29 cells, the effect of the polyal-SN38 conjugates on cell growth was evaluated.
(§1) Cells are grown in McCoy's 5a medium with 1.5 mM L-glutamine supplemented with 10% FBS.
(Tetrazolium assays rely on reduction of a dye to a coloured formazan, in cell work by metabolically active cells.)

The next data set concerns HCT116. Briefly: Inhibitory effect on cell growth, HCT116 cells. It counts as cell-based, human. The method, then:
as §1

The conditions of data set [1]: pH 7.4.
The mark [2] stands for this setting: Homo sapiens, HT-29, HT29, growth inhibition 72 hours post treatment, MTT.

Where two headings read alike, the source gives them in different places.

For the molecule `CC[C@@]1(O)C(=O)OCc2c1cc1n(c2=O)Cc2cc3ccccc3nc2-1` [Camptothecin (CPT), Camptothecin], the IC50 (usually the concentration that gives 50% inhibition) in the data set on HT-29 cells (setting [2]) came to 83 nM; in the data set with HCT116 (Homo sapiens, HCT-116), 23 nM.

Take `CCc1c2c(nc3ccc(OC(=O)N4CCC(N5CCCCC5)CC4)cc13)-c1cc3c(c(=O)n1C2)COC(=O)[C@]3(O)CC` [Irinotecan]: the IC50 in the data set on HT-29 cells (setting [2]) was found to be 4430 nM; with HCT116 (Homo sapiens, HCT-116), 4650 nM. Turning to `CCc1c2c(nc3ccc(O)cc13)-c1cc3c(c(=O)n1C2)COC(=O)[C@]3(O)CC` [SN38], the IC50 in the data set on HT-29 cells (read-out: HT29 IC50) came to 25 nM; in the data set on HCT116 it was 9 nM. Regarding PHF-GA-Ala-SN38 [Conjugate S4], the “Release half-lives of SN38 conjugates, T½” value in data set [1] is 54.2 h. For the molecule PHF-GA-Gly-SN38 [Conjugate S2], the “Release half-lives of SN38 conjugates, T½” value in data set [1] came out at 18.5 h. On the same count and under the same terms, with PHF-SA-Ala-SN38 [Conjugate S3] the figure was 36.9 h; with PHF-SA-Gly-SN38 [Conjugate S1], 2.0 h.
